In publication PMC6080781, “ATP competes with PIP2 for binding to gelsolin” (PLoS ONE, 2018):

Key:
calcium-free gelsolin = molecular target: calcium-free gelsolin; parameters: method as in PMID 10336615; conditions: cited from earlier work
gelsolin [1] = molecular target: T1, gelsolin (Homo sapiens, UniProt P06396); assay: Labeled/unlabeled ATP competition on gelsolin (ATP-N anisotropy); format: binding; conditions: absence of calcium
T1 construct: His tag (cleaved yes); made in house; host or cells: E. coli Rosetta2 (DE3) pLysS, pSY5 plasmid
Procedure: The dissociation constants for ATP and PIP2 were calculated using a hyperbolic model from anisotropy data that had reached saturation during the gelsolin titrations Eq 2: r=rf+(rb−rf)(Kd+[G]+[L]−(Kd+[G]+[L])^2−4[G][L]/2[L]) (2) where rf is the anisotropy of free ligand, rb is the anisotropy of gelsolin-bound ligand, [L] is the total concentration of ligand, Kd is the dissociation constant and [G] is the total concentration of gelsolin. The anisotropy of 0.5 μM ATP-N was measured in the presence of gelsolin concentrations: 0, 0.2, 1.5, 2, 3, 5 and 8 μM. Saturation was evident at 5 μM characterized by an anisotropy value of 0.15 ± 0.006. […]
Supplementary file pone.0201826.s002.pdf: S2 Fig ATP binding to gelsolin under actin polymerization conditions. (A) The calcium-dependent gelsolin binding affinity for ATP under actin polymerization conditions was determined by monitoring the change in ATP-N anisotropy on gelsolin titration at different calcium ion concentrations. Each data point arises from the Kd calculated from a titration similar to Fig 1A. […] (B) The anisotropy of ATP-N (0.5 μM) bound to gelsolin (5 μM) was measured upon titrating with unlabeled ATP in the absence of calcium. […]

gelsolin [2] = molecular target: T1, gelsolin; assay: Confocal microscopy of Alexa488-labeled gelsolin on PIP2-containing phospholipid vesicles; conditions: 0.5 mM ATP, absence of divalent cations
Procedure: Phospholipid vesicles were prepared by a modified protocol from James H. Morrissey, Dept. of Biochemistry, University of Illinois at Urbana-Champaign, Urbana, IL 61801, USA (https://tf7.org). A mixture of 1% PIP2 (PtdIns-(4,5)-P2(1,2-dipalmitoyl)) (Cayman Chemicals), 79% PC (L-α-phosphatidylcholine) (Sigma-Aldrich) and 20% PS (3-sn-phosphatidyl-L-serine) (Sigma-Aldrich) was dissolved in 20 μM rhodamine 590 N-succinimidyl ester (Sigma-Aldrich) in chloroform. […]
10% (v/v) rhodamine590-filled phospholipid vesicles and 5 μM Alexa488-labeled gelsolin were incubated together and a drop of the mixture was placed on a clean glass slide, which was then covered by and separated from a second slide by a parafilm gasket. […] Fluorescence emission-based imaging was carried out using a Zeiss LSM 510 META Confocal Microscope. The two different fluorophores were detected in two separate channels; Alexa488 (gelsolin) was excited by 477 nm laser light and emission was detected in the 505–530 nm channel, while rhodamine590 (phospholipid vesicles) was excited by 545 nm laser light and emission was detected in the 585–630 nm channel.

gelsolin [3] = conditions: equilibrium dialysis, high NaCl concentrations; read-out: dissociation constant for gelsolin; cited from earlier work
gelsolin [4] = molecular target: T1, gelsolin; assay: Steady-state fluorescence anisotropy of PIP2-F binding to gelsolin; conditions: 5 μM gelsolin
Procedure: His-tagged human wild-type gelsolin was expressed in E. coli strain Rosetta2 (DE3) pLysS cells from a pSY5 plasmid. […] Traces of calcium were removed by dialysis (2 mM Tris-HCl, 1 mM EGTA, pH 7.4, overnight). Rabbit skeletal muscle actin was prepared from acetone powder (Pel-Freez Biologicals) in a protocol modified from Spudich and Watt. Actin was stored in buffer A (2 mM Tris-HCl, 0.2 mM ATP (ATP disodium trihydrate, Sigma-Aldrich), 0.1 mM CaCl2 (pCa 4), 0.1 mM DTT and 0.005% NaN3, pH 7.4). Alexa Fluor^TM 488 C5 Maleimide (Life Technologies) was used to label cysteine residues of gelsolin based on the manufacturer’s recommendations (Thermo Fisher Scientific).
We used a fluorescent derivative of PIP2 (PtdIns-(4,5)-P2-fluorescein, Cayman Chemicals, NU-10010388, λex = 493 nm, λem = 520 nm, abbreviated as PIP2-F) and a fluorescent derivative of ATP (N^6-(6-amino)hexyl-ATP-ATTO-532, Jena Bioscience, NU-805-532, λex = 532 nm, λem = 553 nm, abbreviated as ATP-N) as probes for the binding of PIP2 and ATP to gelsolin. Fluorescence intensities were measured on a Safire^2 monochromator microplate reader (TECAN) at 22°C. Steady-state fluorescence anisotropy values were determined according to Eq 1 [65], where IVV and IVH, respectively, are the intensities of vertically and horizontally polarized emission on excitation with vertically polarized light, with the correction factor, G, being the ratio of IVH/IVV.
The dissociation constants for ATP and PIP2 were calculated using a hyperbolic model from anisotropy data that had reached saturation during the gelsolin titrations Eq 2: r=rf+(rb−rf)(Kd+[G]+[L]−(Kd+[G]+[L])^2−4[G][L]/2[L]) (2) where rf is the anisotropy of free ligand, rb is the anisotropy of gelsolin-bound ligand, [L] is the total concentration of ligand, Kd is the dissociation constant and [G] is the total concentration of gelsolin. The anisotropy of 0.5 μM ATP-N was measured in the presence of gelsolin concentrations: 0, 0.2, 1.5, 2, 3, 5 and 8 μM. […] The calcium and magnesium sensitivities of ATP binding to gelsolin were characterized by the change in anisotropy of solutions containing 0.5 μM ATP-N in the presence of 5 μM of gelsolin over a range of divalent cation concentrations of pCa 2–12 or pMg 1–12, where pCa and pMg refer to[…]. […] Anisotropy of 0.5 μM or 0.25 μM solutions of PIP2-F in the presence of 5 μM gelsolin was used to probe the changes in binding of the complexes under different calcium, magnesium, salt and ATP conditions.

[5] = Critical micelle concentration by dynamic light scattering; format: physicochemical
Procedure: tested, PIP2-F was free from micelle formation at concentrations of 0.5 µM or below, whereas […]
Methods: The critical micelle concentrations of PIP2 and 1-(1-octadecanoyl-fluorescein-2R-octadecanoylphosphatidyl)inositol-4,5-bisphosphate (Cayman Chemical, abbreviated as PIP2-F) were determined by dynamic light scattering (Huang et al., 2011). Fifty microliter samples were prepared by serial dilution of PIP2 or PIP2-F into a low salt buffer (2 mM Tris-HCl, pH 7.4), or the same buffer supplemented with 100 mM KCl, 1 mM MgCl2, and/or 1 mM CaCl2. After incubation for 30 min, the samples were centrifuged at 15,000 x g for 10 min, transferred into a 384-well clear bottom plate, and light scattering was measured using a Wyatt Dynapro plate reader at room temperature. The concentrations of PIP2-F were subsequently determined by light absorbance at 494 nm with a Nanodrop spectrophotometer. […]
Huang, W., Jiang, D., Wang, X., Wang, K., Sims, C. E., Allbritton, N. L. and Zhang, Q.

[6] = Calcium-dependent fluorescence emission of FURA-2FF; format: binding; conditions: inferred from unchanged FURA-2FF profile with 20 μM PIP2
Procedure: Supplementary file pone.0201826.s005.pdf: S5 Fig Assessment of the effects of calcium and ATP on the binding of ATP-N and PIP2-F to gelsolin. (A) Kds were calculated from the fit data with Eq 2 of gelsolin:PIP2-F binding under different calcium concentrations in the absence or presence of ATP. In the absence of ATP, PIP2-F (0.5 μM) binds to gelsolin, as reflected by thehigh affinity, across a wide range of calcium concentrations. […] (B) In the absence of gelsolin, calcium directly precipitates ATP-N (C, open triangles) with a half-maximum value of 70.4 ± 0.7 μM. Magnesium has no effect on the fluorescence emission of ATP-N either in the absence (M, orange circles) or presence of 10 μM calcium (MC, purple squares). Data were fitted with simple sigmoidal curves. (C) The reported FURA-2FF dissociation constant for calcium ions is 25 μM (A.G. Scientific Inc.). The calcium-dependent fluorescence emission profile of FURA-2FF (2 μM) over pCa range of 5–7 was similar in the presence and absence of 20 μM PIP2, which were fitted with simple sigmoidal curves. […] The measurement was carried out with a Perkin Elmer LS-55 spectrofluorimeter (λex = 340 nm, λem = 505 nm). (PDF) Click here for additional data file.

T1 sequence (P06396 28-782): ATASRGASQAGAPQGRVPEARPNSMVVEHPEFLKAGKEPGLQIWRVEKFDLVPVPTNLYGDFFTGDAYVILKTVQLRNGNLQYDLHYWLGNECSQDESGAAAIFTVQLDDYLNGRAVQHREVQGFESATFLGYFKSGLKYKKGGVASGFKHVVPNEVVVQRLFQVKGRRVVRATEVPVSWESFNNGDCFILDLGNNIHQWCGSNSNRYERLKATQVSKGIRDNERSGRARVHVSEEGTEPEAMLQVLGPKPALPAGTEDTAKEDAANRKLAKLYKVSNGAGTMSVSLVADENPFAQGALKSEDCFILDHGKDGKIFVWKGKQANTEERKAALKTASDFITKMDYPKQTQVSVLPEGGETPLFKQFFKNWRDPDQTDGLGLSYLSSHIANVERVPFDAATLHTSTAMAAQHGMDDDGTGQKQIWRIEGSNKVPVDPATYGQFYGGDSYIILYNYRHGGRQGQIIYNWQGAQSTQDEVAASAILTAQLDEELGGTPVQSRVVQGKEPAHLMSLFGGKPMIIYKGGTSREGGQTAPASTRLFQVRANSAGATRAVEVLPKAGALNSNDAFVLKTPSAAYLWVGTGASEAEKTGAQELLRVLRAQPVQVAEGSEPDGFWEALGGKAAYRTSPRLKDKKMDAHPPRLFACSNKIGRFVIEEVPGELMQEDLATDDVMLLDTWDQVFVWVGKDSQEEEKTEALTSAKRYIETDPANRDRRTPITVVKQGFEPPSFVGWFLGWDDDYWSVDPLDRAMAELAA

| Compound | Kd (calcium-free gelsolin; Gremm and Wegner, read-out: Kd of calcium-free gelsolin for ATP) [nM] | ATP binding to gelsolin (calcium-free gelsolin; solutions with more than 10 μM Ca2+ (pCa 5)) | ATP concentration sufficient to remove the gelsolin bound ATP-N (gelsolin [1]; 0.5 μM ATP-N, 5 μM gelsolin) [µM] | Kd (gelsolin [1]; 50 mM KCl, 1 mM MgCl2 (actin polymerizing salt), competition with ATP-N) [nM] | release of gelsolin-Alexa488 from PIP2-containing vesicles (gelsolin [2]) | Kd (gelsolin [3]) [nM] | effect of ATP on PIP2-F anisotropy (gelsolin [4]; 0.5 mM ATP, 0.25 μM PIP2-F, 100 mM K+, 1 mM Mg2+, entire calcium range, absence and presence of 50 μM actin) | effect of ATP on the gelsolin/PIP2-F complex (gelsolin [4]; 0.2 or 0.5 mM ATP, 0.5 μM PIP2-F) | CMC of PIP2 ([5]; 100 mM KCl and 1 mM MgCl2, nominal concentrations) [µM] | CMC of PIP2 ([5]; 100 mM KCl, nominal concentrations) [µM] | CMC of PIP2 ([5]; absence of cations, nominal concentrations) [µM] | CMC of PIP2 ([5]; calcium in the buffer, considered an overestimation) | Kd [6] [nM] |
| --- | --- | --- | --- | --- | --- | --- | --- | --- | --- | --- | --- | --- | --- |
| Nc1ncnc2c1ncn2[C@@H]1O[C@H](COP(=O)(O)OP(=O)(O)OP(=O)([O-])[O-])[C@@H](O)[C@H]1O.O.O.O.[Na+].[Na+] [ATP, ATP disodium trihydrate] | 32000 | No ATP binding to gelsolin is detectable | 50 | 2200 | the majority of gelsolin-Alexa488 was released from the vesicles | 280 | almost complete loss of PIP2-F anisotropy | complete dissociation of the gelsolin/PIP2-F complex |  |  |  |  |  |
| phosphatidylinositol 4,5-bisphosphate [PIP2] |  |  |  |  |  |  |  |  | < 1 | 2 | 20 | ~ 10 μM | ≥ 25000 |
